How the values were obtained:
Assay in all cases: relative viability (nuclei count vs DMSO), 5 days (fraction); higher = more cells survive
[1] = compound: C1COCCN1C2=NC(=NC3=C2OC4=C3C=CC=N4)C5=CC(=CC=C5)NC(=O)C6=CN=C(C=C6)N + Nc1ncn([C@H]2C[C@H](O)[C@@H](CO)O2)c(=O)n1 [Decitabine] (partner 2 µM)
In short: (§1)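 The day after seeding in 1536-well plates, lung cancer cell lines were treated by pin tool with a single drug, or with a fixed anchor-drug dose together with five library-drug doses (not always all listed) in √10 steps. After 5 days, a combined fix-and-stain solution (final 0.05% Triton X-100, 1% formaldehyde, 1 ug/ml Hoechst) was added. Nuclei counted on 4× images gave relative viability as treated counts over vehicle counts, reported as the median of duplicate plates.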

Entinostat + Trametinib = compound: Nc1ccccc1NC(=O)c1ccc(CNC(=O)OCc2cccnc2)cc1 [Entinostat] + CC(=O)Nc1cccc(-n2c(=O)n(C3CC3)c(=O)c3c(Nc4ccc(I)cc4F)n(C)c(=O)c(C)c32)c1 [Trametinib] (partner 0.02 µM)
In short: as §1

SGI-1776 + Dasatinib = compound: CN1CCC(CNc2ccc3ncc(-c4cccc(OC(F)(F)F)c4)n3n2)CC1 [SGI-1776] + Cc1nc(Nc2ncc(C(=O)Nc3c(C)cccc3Cl)s2)cc(N2CCN(CCO)CC2)n1 [Dasatinib] (partner 0.075 µM)
In short: as §1

Entinostat + Bortezomib = compound: Nc1ccccc1NC(=O)c1ccc(CNC(=O)OCc2cccnc2)cc1 [Entinostat] + CC(C)C[C@H](NC(=O)[C@H](Cc1ccccc1)NC(=O)c1cnccn1)B(O)O [Bortezomib] (partner 0.002 µM)
In short: as §1

Cell Line	relative viability ([1]; first compound 0.02 µM)	relative viability ([1]; first compound 0.06325 µM)	relative viability ([1]; first compound 0.2 µM)	relative viability ([1]; first compound 0.6325 µM)	relative viability ([1]; first compound 2 µM)	relative viability (Entinostat + Trametinib; first compound 0.02 µM)	relative viability (Entinostat + Trametinib; first compound 0.06325 µM)	relative viability (Entinostat + Trametinib; first compound 0.2 µM)	relative viability (Entinostat + Trametinib; first compound 0.6325 µM)	relative viability (Entinostat + Trametinib; first compound 2 µM)	relative viability (SGI-1776 + Dasatinib; first compound 0.08 µM)	relative viability (SGI-1776 + Dasatinib; first compound 0.8 µM)	relative viability (SGI-1776 + Dasatinib; first compound 2.53 µM)	relative viability (SGI-1776 + Dasatinib; first compound 8 µM)	relative viability (Entinostat + Bortezomib; first compound 0.02 µM)	relative viability (Entinostat + Bortezomib; first compound 0.06325 µM)	relative viability (Entinostat + Bortezomib; first compound 0.2 µM)	relative viability (Entinostat + Bortezomib; first compound 0.6325 µM)	relative viability (Entinostat + Bortezomib; first compound 2 µM)
SW 1573	0.555	0.472	0.565	0.543	0.422	0.652	0.722	0.733	0.554	0.431	0.457	0.456	0.457	0.295	1.06	1.14	1.19	0.836	0.787
LU99A	0.864	0.745	0.937	0.806	0.445	0.599	0.615	0.504	0.471	0.378	0.727	0.56	0.382	0.441	1.02	1.26	1	0.801	0.784
NCI-H1299	–	–	–	–	–	–	–	–	–	–	–	–	–	–	1.04	0.985	0.934	0.858	0.732
NCI-H1355	0.377	0.374	0.372	0.43	0.418	0.443	0.402	0.337	0.344	0.243	0.778	0.722	0.52	0.604	1.19	1.16	0.951	0.725	0.603
HARA	0.529	0.569	0.64	0.576	0.412	0.903	0.983	0.696	0.647	0.48	0.31	0.178	0.207	0.289	1.13	1.1	1.11	1.04	0.465
LXF-289	0.36	0.438	0.329	0.457	0.409	0.642	0.653	0.652	0.408	0.453	0.222	0.224	0.148	0.161	1.01	0.986	0.96	0.725	0.646
201T	0.864	0.856	0.872	0.862	0.785	0.746	0.72	0.684	0.716	0.545	0.603	0.555	0.47	0.471	1.09	1.11	1.05	1.01	0.872
HCC-827	0.343	0.298	0.348	0.287	0.302	0.516	0.474	0.406	0.338	0.203	0.352	0.33	0.255	0.227	0.979	1.02	0.976	0.979	0.539
NCI-H1703	–	–	–	–	–	–	–	–	–	–	–	–	–	–	0.314	0.383	0.308	0.265	0.149
NCI-H1975	0.347	0.396	0.37	0.381	0.371	0.373	0.32	0.313	0.223	0.169	0.385	0.369	0.253	0.232	0.355	0.309	0.271	0.182	0.163
NCI-H2023	0.248	0.246	0.23	0.325	0.191	0.467	0.473	0.226	0.127	0.0998	0.637	0.523	0.432	0.254	0.859	0.85	0.411	0.166	0.105
ChaGo-K-1	0.563	0.544	0.517	0.601	0.458	0.948	0.933	0.897	0.785	0.64	0.652	0.647	0.561	0.416	1.41	1.02	1.09	0.94	0.623
COR-L 105	0.604	0.683	0.61	0.621	0.572	0.475	0.45	0.45	0.413	0.406	0.343	0.323	0.284	0.254	0.608	0.914	0.926	0.484	0.313
NCI-H2170	0.493	0.488	0.48	0.551	0.506	0.972	0.888	0.752	0.579	0.402	0.651	0.527	0.354	0.434	–	–	–	–	–
A549	–	0.362	0.265	0.238	0.256	–	–	–	–	–	–	–	–	–	–	–	–	–	–
NCI-H1993	0.549	0.293	0.531	0.547	0.57	0.484	0.572	0.504	0.475	0.492	0.584	0.651	0.55	0.528	1.1	1.16	1	0.723	0.543
Calu-6	–	–	–	–	–	–	–	–	–	–	–	–	–	–	1.02	1.02	0.944	0.69	0.504
NCI-H1648	0.41	0.481	0.456	0.509	0.52	0.507	0.682	0.436	0.653	0.472	–	–	–	–	–	–	–	–	–
NCI-H1623	–	–	–	–	–	–	–	–	–	–	0.658	0.608	0.559	0.538	–	–	–	–	–
NCI-H322M	0.708	0.64	0.695	0.69	0.64	0.546	0.534	0.542	0.525	0.502	0.27	0.252	0.208	0.252	1.33	1.33	1.31	1.27	1.3
NCI-H2405	0.671	0.674	0.763	0.767	0.694	0.647	0.722	0.651	0.608	0.542	0.225	0.195	0.178	0.166	1.01	1.04	0.976	0.916	0.653
HCC-44	0.892	0.93	1.01	0.929	0.989	1.07	0.895	0.81	0.735	0.625	–	–	–	–	0.861	0.758	0.698	0.373	0.269

Cell Line	relative viability ([1]; first compound 0.02 µM)	relative viability ([1]; first compound 0.06325 µM)	relative viability ([1]; first compound 0.2 µM)	relative viability ([1]; first compound 0.6325 µM)	relative viability ([1]; first compound 2 µM)	relative viability (Entinostat + Trametinib; first compound 0.02 µM)	relative viability (Entinostat + Trametinib; first compound 0.06325 µM)	relative viability (Entinostat + Trametinib; first compound 0.2 µM)	relative viability (Entinostat + Trametinib; first compound 0.6325 µM)	relative viability (Entinostat + Trametinib; first compound 2 µM)	relative viability (SGI-1776 + Dasatinib; first compound 0.08 µM)	relative viability (SGI-1776 + Dasatinib; first compound 0.8 µM)	relative viability (SGI-1776 + Dasatinib; first compound 2.53 µM)	relative viability (SGI-1776 + Dasatinib; first compound 8 µM)	relative viability (Entinostat + Bortezomib; first compound 0.02 µM)	relative viability (Entinostat + Bortezomib; first compound 0.06325 µM)	relative viability (Entinostat + Bortezomib; first compound 0.2 µM)	relative viability (Entinostat + Bortezomib; first compound 0.6325 µM)	relative viability (Entinostat + Bortezomib; first compound 2 µM)
HCC-78	0.69	0.78	0.671	0.961	0.777	0.706	0.662	0.505	0.377	0.253	0.416	0.455	0.369	0.366	0.551	0.389	0.27	0.217	0.213
COR-L23	0.478	0.502	0.469	0.602	0.389	0.507	0.614	0.544	0.318	0.189	0.514	0.546	0.464	0.322	0.994	0.881	0.964	0.423	0.147
NCI-H2009	0.373	0.367	0.415	0.456	0.395	0.312	0.354	0.325	0.294	0.238	0.373	0.291	0.231	0.15	1.03	1.05	0.912	0.814	0.497
NCI-H3122	0.391	0.354	0.366	0.487	0.322	0.265	0.259	0.27	0.208	0.212	0.877	0.76	0.96	0.821	0.951	1.07	1.06	0.869	1.01
NCI-H2228	–	–	–	–	–	0.466	0.587	0.524	0.224	0.183	0.581	0.665	0.416	0.27	0.815	0.831	1.05	0.462	0.204
NCI-H1944	0.418	0.474	0.456	0.527	0.476	0.387	0.43	0.333	0.265	0.232	0.223	0.2	0.223	0.173	–	–	–	–	–
NCI-H2342	0.724	0.727	0.751	0.743	0.693	0.855	0.659	0.713	0.605	0.673	0.364	0.326	0.289	0.301	–	–	–	–	–
NCI-H358	0.221	0.212	0.211	0.247	0.182	0.175	0.164	0.135	0.117	0.127	0.197	0.186	0.158	0.133	–	–	–	–	–
NCI-H1755	0.693	0.71	0.714	0.722	0.628	0.721	0.751	0.605	0.565	0.44	0.454	0.437	0.351	0.287	0.932	0.956	0.9	0.534	0.321
A-427	0.588	0.512	0.619	0.679	0.579	0.882	0.921	0.866	0.639	0.523	0.736	0.693	0.665	0.499	0.99	0.975	0.966	0.916	0.632
ABC-1	0.929	1.07	0.98	1.23	1.08	–	–	–	–	–	0.502	0.613	0.508	0.465	0.338	0.327	0.331	0.216	0.277
NCI-H1563	–	–	–	–	–	–	–	–	–	–	0.446	0.474	0.457	0.453	0.841	0.843	0.908	0.722	0.65
NCI-H522	0.633	0.798	0.694	0.563	0.645	0.812	0.966	0.799	0.844	0.841	0.828	0.849	0.843	0.729	–	–	–	–	–
IA-LM	–	–	–	–	–	–	–	–	–	–	–	–	–	–	0.814	0.842	1.03	0.597	0.447
NCI-H1793	0.445	0.514	0.457	0.602	0.407	0.465	0.387	0.31	0.304	0.292	0.395	0.332	0.382	0.405	–	–	–	–	–
SW 900	0.402	0.42	0.448	0.648	0.558	0.793	0.752	0.614	0.766	0.347	0.542	0.387	0.56	0.301	–	–	–	–	–
CAL-12T	–	–	–	–	–	0.362	0.306	0.355	0.297	0.252	0.633	0.351	0.348	0.246	1.19	0.973	0.96	0.99	0.665
SK-MES-1	0.407	0.491	0.408	0.643	0.356	0.553	0.693	0.865	0.83	0.512	0.476	0.415	0.35	0.211	–	–	–	–	–
EBC-1	–	–	–	–	–	–	–	–	–	–	–	–	–	–	0.564	0.599	0.293	0.196	0.176
LK-2	0.306	0.267	0.256	0.259	0.243	0.778	0.686	0.652	0.447	0.349	0.301	0.354	0.253	0.173	–	–	–	–	–
NCI-H1395	0.719	0.672	0.75	0.788	0.849	1.08	1.09	0.977	0.79	0.699	0.381	0.379	0.394	0.373	–	–	–	–	–
